Our source for the IC50 values is patent US20090298820A1, “3-SUBSTITUTED-1H-PYRROLO[2,3-B]PYRIDINE AND 3-SUBSTITUTED-1H-PYRROLO[3,2-B]PYRIDINE COMPOUNDS, THEIR USE AS MTOR KINASE AND PI3 KINASE INHIBITORS, AND THEIR SYNTHESES” (Wyeth, priority 2008, published 2009).

By IC50 is commonly meant the point on the concentration scale where inhibition reaches its midpoint.

Each structure is given as a SMILES string.

Assay type in all cases: biochemical
The target of one experiment is mTOR (Homo sapiens, UniProt P42345). Description: mTOR enzyme assay (DELFIA format, His6-S6K substrate). The settings on record: read-out: mTOR Kinase Median IC50.
In a further experiment the target is PI3Kα (Homo sapiens, UniProt P42336). Description: PI3K-alpha fluorescence polarization assay. The conditions noted are these: read-out: PI3Kα Median IC50.
Another experiment has as its target PI3Kγ (Homo sapiens, UniProt P48736). Kind of experiment: PI3K-gamma fluorescence polarization assay. The settings on record: read-out: PI3Kγ Median IC50. On the technique in general: In fluorescence polarisation assays a small probe gives low polarisation when free and higher when bound to something large.

PI3Kγ, sequence (P48736 whole entry, species assumed): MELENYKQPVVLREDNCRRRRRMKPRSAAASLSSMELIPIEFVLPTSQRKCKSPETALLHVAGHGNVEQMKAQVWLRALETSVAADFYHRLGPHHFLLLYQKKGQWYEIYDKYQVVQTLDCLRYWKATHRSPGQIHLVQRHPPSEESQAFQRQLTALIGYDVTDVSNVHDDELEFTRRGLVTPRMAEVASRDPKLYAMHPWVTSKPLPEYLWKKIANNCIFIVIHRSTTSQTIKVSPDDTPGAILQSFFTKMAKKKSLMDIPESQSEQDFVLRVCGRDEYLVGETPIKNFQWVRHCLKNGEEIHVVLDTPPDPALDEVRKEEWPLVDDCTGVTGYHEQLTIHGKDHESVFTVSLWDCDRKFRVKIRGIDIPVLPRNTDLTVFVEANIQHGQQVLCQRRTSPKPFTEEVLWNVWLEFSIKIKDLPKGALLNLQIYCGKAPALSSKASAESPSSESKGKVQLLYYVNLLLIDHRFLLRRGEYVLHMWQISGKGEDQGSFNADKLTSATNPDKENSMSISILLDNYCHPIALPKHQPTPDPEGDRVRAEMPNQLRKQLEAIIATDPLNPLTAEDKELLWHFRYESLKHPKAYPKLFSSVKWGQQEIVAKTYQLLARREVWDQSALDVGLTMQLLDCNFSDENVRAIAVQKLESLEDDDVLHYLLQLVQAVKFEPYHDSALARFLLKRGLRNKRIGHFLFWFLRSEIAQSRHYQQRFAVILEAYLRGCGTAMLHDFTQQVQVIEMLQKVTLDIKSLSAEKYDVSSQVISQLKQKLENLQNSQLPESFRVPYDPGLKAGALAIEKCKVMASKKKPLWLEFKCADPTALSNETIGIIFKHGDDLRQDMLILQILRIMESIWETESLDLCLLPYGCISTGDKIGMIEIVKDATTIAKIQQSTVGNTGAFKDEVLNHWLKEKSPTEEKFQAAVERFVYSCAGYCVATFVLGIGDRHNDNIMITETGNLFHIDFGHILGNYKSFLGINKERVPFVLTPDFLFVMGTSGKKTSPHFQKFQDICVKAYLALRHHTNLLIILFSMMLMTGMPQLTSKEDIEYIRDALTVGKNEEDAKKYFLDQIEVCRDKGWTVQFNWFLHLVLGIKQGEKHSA
PI3Kα, sequence (P42336 whole entry, species assumed): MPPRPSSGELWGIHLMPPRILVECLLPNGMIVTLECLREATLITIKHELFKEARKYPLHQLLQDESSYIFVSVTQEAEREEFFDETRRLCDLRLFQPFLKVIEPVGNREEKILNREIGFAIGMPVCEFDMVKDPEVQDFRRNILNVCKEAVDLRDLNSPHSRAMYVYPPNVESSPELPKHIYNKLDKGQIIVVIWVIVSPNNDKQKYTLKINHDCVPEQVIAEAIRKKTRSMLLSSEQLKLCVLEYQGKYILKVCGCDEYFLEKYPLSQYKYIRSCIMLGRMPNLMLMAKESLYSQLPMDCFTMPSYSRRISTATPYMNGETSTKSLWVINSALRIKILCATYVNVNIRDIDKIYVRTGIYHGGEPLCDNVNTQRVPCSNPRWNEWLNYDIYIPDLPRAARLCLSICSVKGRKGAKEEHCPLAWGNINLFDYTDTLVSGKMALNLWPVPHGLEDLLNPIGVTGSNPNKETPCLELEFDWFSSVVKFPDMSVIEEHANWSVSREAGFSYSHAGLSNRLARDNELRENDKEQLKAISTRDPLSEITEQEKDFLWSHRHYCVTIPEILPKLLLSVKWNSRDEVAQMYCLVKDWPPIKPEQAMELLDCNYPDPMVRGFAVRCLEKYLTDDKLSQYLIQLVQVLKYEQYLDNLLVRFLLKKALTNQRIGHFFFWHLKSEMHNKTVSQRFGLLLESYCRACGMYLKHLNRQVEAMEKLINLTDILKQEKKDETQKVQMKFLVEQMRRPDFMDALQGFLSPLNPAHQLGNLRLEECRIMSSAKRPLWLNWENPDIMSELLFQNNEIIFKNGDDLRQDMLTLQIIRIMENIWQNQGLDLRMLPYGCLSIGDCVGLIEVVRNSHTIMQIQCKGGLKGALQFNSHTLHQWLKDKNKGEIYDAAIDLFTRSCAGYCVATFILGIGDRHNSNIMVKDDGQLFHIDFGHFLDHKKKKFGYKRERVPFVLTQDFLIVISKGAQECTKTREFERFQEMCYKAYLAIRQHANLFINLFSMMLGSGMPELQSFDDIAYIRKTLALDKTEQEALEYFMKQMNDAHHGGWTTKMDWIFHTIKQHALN
PI3Kα, sequence (P27986 whole entry partner, species assumed): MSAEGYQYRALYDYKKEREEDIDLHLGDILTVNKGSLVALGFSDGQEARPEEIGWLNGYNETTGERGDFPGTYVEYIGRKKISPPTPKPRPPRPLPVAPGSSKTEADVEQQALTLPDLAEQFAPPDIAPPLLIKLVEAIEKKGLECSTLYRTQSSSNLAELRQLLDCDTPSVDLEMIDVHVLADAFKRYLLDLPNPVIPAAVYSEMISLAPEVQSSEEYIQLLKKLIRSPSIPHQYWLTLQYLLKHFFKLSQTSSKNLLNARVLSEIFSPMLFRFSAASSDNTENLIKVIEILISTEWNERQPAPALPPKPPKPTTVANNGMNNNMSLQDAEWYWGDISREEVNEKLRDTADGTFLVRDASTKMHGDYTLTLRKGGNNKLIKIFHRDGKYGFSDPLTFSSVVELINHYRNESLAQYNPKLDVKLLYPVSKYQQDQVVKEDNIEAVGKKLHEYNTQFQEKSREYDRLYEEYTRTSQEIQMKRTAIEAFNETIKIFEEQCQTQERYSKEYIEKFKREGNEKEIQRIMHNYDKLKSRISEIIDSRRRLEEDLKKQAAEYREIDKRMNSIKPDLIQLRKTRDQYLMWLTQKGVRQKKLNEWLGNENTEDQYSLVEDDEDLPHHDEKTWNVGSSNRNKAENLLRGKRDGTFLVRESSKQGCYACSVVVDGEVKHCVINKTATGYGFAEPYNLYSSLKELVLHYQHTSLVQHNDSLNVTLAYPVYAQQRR

As to `Cn1cc(/C=C2\Oc3cccc(O)c3C2=O)c2c(-c3ccc(N4CCCCC4)nc3)ccnc21` [Compound 70, (2Z)-4-hydroxy-2-{[1-methyl-4-(6-piperidin-1-ylpyridin-3-yl)-1H-pyrrolo[2,3-b]pyridin-3-yl]methylene}-1-benzofuran-3(2H)-one], the IC50 was 115 nM at mTOR, 271 nM on PI3Kα and 242 nM on PI3Kγ.
In the case of `Cn1cc(/C=C2\Oc3cccc(O)c3C2=O)c2c(-c3ccc(S(C)(=O)=O)cc3)ccnc21` [Compound 73, (2Z)-4-hydroxy-2-({1-methyl-4-[4-(methylsulfonyl)phenyl]-1H-pyrrolo[2,3-b]pyridin-3-yl}methylene)-1-benzofuran-3(2H)-one], the IC50 worked out at 3.1 nM on mTOR, 23 nM at PI3Kα and 75 nM on PI3Kγ.
In the case of `CNS(=O)(=O)c1ccc(-c2ccnc3c2c(/C=C2\Oc4cc(O)cc(O)c4C2=O)cn3C)cc1` [Compound 77, 4-{3-[(Z)-(4,6-dihydroxy-3-oxo-1-benzofuran-2(3H)-ylidene)methyl]-1-methyl-1H-pyrrolo[2,3-b]pyridin-4-yl}-N-methylbenzenesulfonamide], the IC50 on mTOR came to 0.2 nM; at PI3Kα, 2 nM; at PI3Kγ it was 22 nM.
`Cn1cc(/C=C2\Oc3cc(O)cc(O)c3C2=O)c2c(C3=CCNCC3)ccnc21` [Compound 78, (2Z)-4,6-dihydroxy-2-{[1-methyl-4-(1,2,3,6-tetrahydropyridin-4-yl)-1H-pyrrolo[2,3-b]pyridin-3-yl]methylene}-1-benzofuran-3(2H)-one]: the results for the IC50 on mTOR, at PI3Kα and on PI3Kγ were 5 nM, 31 nM and 315 nM, respectively.
For the molecule `Cn1cc(/C=C2\Oc3cc(O)cc(O)c3C2=O)c2c(-c3cccc(C(=O)N4CCCC4)c3)ccnc21` [Compound 79, (2Z)-4,6-dihydroxy-2-({1-methyl-4-[3-(pyrrolidin-1-ylcarbonyl)phenyl]-1H-pyrrolo[2,3-b]pyridin-3-yl}methylene)-1-benzofuran-3(2H)-one], the values for the IC50 at mTOR, at PI3Kα and on PI3Kγ were 1.4 nM, 8 nM and 49 nM, respectively.
Consider `Cn1cc(/C=C2\Oc3cc(O)cc(O)c3C2=O)c2c(-c3cccc(S(=O)(=O)N4CCCCC4)c3)ccnc21` [Compound 80, (2Z)-4,6-dihydroxy-2-({1-methyl-4-[3-(piperidin-1-ylsulfonyl)phenyl]-1H-pyrrolo[2,3-b]pyridin-3-yl}methylene)-1-benzofuran-3(2H)-one], for which the IC50 on mTOR was 1.8 nM; at PI3Kα it was 23 nM; at PI3Kγ, 69 nM.
Take `COc1ccc(-c2ccnc3c2c(/C=C2\Oc4cccc(O)c4C2=O)cn3C)cc1S(=O)(=O)N1CCOCC1` [Compound 81, (2Z)-4-hydroxy-2-({4-[4-methoxy-3-(morpholin-4-ylsulfonyl)phenyl]-1-methyl-1H-pyrrolo[2,3-b]pyridin-3-yl}methylene)-1-benzofuran-3(2H)-one]: the IC50 at mTOR came to 1.6 nM; on PI3Kα it was 28 nM; on PI3Kγ, 79 nM.
The matching figures for `Cn1cc(/C=C2\Oc3cccc(O)c3C2=O)c2c(-c3ccc(S(=O)(=O)NC4CC4)cc3)ccnc21` [Compound 82, N-cyclopropyl-4-{3-[(Z)-(4-hydroxy-3-oxo-1-benzofuran-2(3H)-ylidene)methyl]-1-methyl-1H-pyrrolo[2,3-b]pyridin-4-yl}benzenesulfonamide]: 1.4 nM, 20 nM and 70 nM.
In the same order, the values of `Cn1cc(/C=C2\Oc3cccc(O)c3C2=O)c2c(-c3ccc(C(=O)Nc4ccc(F)cc4)cc3)ccnc21` [Compound 83, N-(4-fluorophenyl)-4-{3-[(Z)-(4-hydroxy-3-oxo-1-benzofuran-2(3H)-ylidene)methyl]-1-methyl-1H-pyrrolo[2,3-b]pyridin-4-yl}benzamide] are 9.5 nM, 124 nM and 951 nM.
In the same order, the values of `Cn1cc(/C=C2\Oc3cccc(O)c3C2=O)c2c(-c3ccc(Oc4ccccc4)cc3)ccnc21` [Compound 84, (2Z)-4-hydroxy-2-{[1-methyl-4-(4-phenoxyphenyl)-1H-pyrrolo[2,3-b]pyridin-3-yl]methylene}-1-benzofuran-3(2H)-one] are 165 nM, 4880 nM and over 10000 nM.
Take `Cn1cc(/C=C2\Oc3cccc(O)c3C2=O)c2c(-c3cc4ccccc4o3)ccnc21` [Compound 85, (2Z)-2-{[4-(1-benzofuran-2-yl)-1-methyl-1H-pyrrolo[2,3-b]pyridin-3-yl]methylene}-4-hydroxy-1-benzofuran-3(2H)-one]: the IC50 on mTOR came to 26.5 nM; on PI3Kα, 273 nM; at PI3Kγ, 157 nM.
`COc1ccc(-c2ccnc3c2c(/C=C2\Oc4cccc(O)c4C2=O)cn3C)cc1S(=O)(=O)N1CCCC1` [Compound 86, (2Z)-4-hydroxy-2-({4-[4-methoxy-3-(pyrrolidin-1-ylsulfonyl)phenyl]-1-methyl-1H-pyrrolo[2,3-b]pyridin-3-yl}methylene)-1-benzofuran-3(2H)-one]: the IC50 at mTOR came out at 3.4 nM; on PI3Kα, 77 nM; on PI3Kγ, 600 nM.
Turning to `Cn1cc(/C=C2\Oc3cc(O)cc(O)c3C2=O)c2c(-c3ccc(Oc4ccccc4)cc3)ccnc21` [Compound 87, (2Z)-4,6-dihydroxy-2-{[1-methyl-4-(4-phenoxyphenyl)-1H-pyrrolo[2,3-b]pyridin-3-yl]methylene}-1-benzofuran-3(2H)-one], the IC50 at mTOR came out at 3.6 nM; on PI3Kα, 161 nM; on PI3Kγ it was 66 nM.
Consider `COc1ccc(-c2ccnc3c2c(/C=C2\Oc4cc(O)cc(O)c4C2=O)cn3C)cc1S(=O)(=O)N1CCOCC1` [Compound 88, (2Z)-4,6-dihydroxy-2-({4-[4-methoxy-3-(morpholin-4-ylsulfonyl)phenyl]-1-methyl-1H-pyrrolo[2,3-b]pyridin-3-yl}methylene)-1-benzofuran-3(2H)-one], for which the IC50 at mTOR is 0.2 nM; on PI3Kα, 8 nM; on PI3Kγ, 27 nM.
Turning to `COc1ccc(-c2ccnc3c2c(/C=C2\Oc4cc(O)cc(O)c4C2=O)cn3C)cc1S(=O)(=O)N1CCCC1` [Compound 89, (2Z)-4,6-dihydroxy-2-({4-[4-methoxy-3-(pyrrolidin-1-ylsulfonyl)phenyl]-1-methyl-1H-pyrrolo[2,3-b]pyridin-3-yl}methylene)-1-benzofuran-3(2H)-one], the IC50 at mTOR came out at 0.5 nM; at PI3Kα, 8 nM; at PI3Kγ, 50 nM.
For the molecule `Cn1cc(/C=C2\Oc3cccc(O)c3C2=O)c2c(-c3ccc(S(=O)(=O)NCc4ccccc4)cc3)ccnc21` [Compound 90, N-benzyl-4-{3-[(Z)-(4-hydroxy-3-oxo-1-benzofuran-2(3H)-ylidene)methyl]-1-methyl-1H-pyrrolo[2,3-b]pyridin-4-yl}benzenesulfonamide], the IC50 turned out to be 24 nM on mTOR, 10 nM on PI3Kα and 16 nM at PI3Kγ.
As to `Cn1cc(/C=C2\Oc3cccc(O)c3C2=O)c2c(-c3ccc(C(=O)N4CCCC4)cc3)ccnc21` [Compound 91, (2Z)-4-hydroxy-2-({1-methyl-4-[4-(pyrrolidin-1-ylcarbonyl)phenyl]-1H-pyrrolo[2,3-b]pyridin-3-yl}methylene)-1-benzofuran-3(2H)-one], the IC50 on mTOR stood at 0.7 nM; at PI3Kα, 36 nM; on PI3Kγ, 74 nM.
With `Cn1cc(/C=C2\Oc3cc(O)cc(O)c3C2=O)c2c(-c3ccc(C(=O)N4CCCC4)cc3)ccnc21` [Compound 92, (2Z)-4,6-dihydroxy-2-({1-methyl-4-[4-(pyrrolidin-1-ylcarbonyl)phenyl]-1H-pyrrolo[2,3-b]pyridin-3-yl}methylene)-1-benzofuran-3(2H)-one], the IC50 on mTOR is 0.2 nM; at PI3Kα, 9 nM; on PI3Kγ, 54 nM.
As to `Cn1cc(/C=C2\Oc3cccc(O)c3C2=O)c2c(-c3cccc(C(=O)Nc4ccc(F)cc4)c3)ccnc21` [Compound 96, N-(4-fluorophenyl)-3-{3-[(Z)-(4-hydroxy-3-oxo-1-benzofuran-2(3H)-ylidene)methyl]-1-methyl-1H-pyrrolo[2,3-b]pyridin-4-yl}benzamide], the IC50 on mTOR was 13 nM; at PI3Kα, 301 nM; on PI3Kγ, 2700 nM.
Take `Cn1cc(/C=C2\Oc3cc(O)cc(O)c3C2=O)c2c(-c3cccc(C(=O)Nc4ccc(F)cc4)c3)ccnc21` [Compound 97, 3-{3-[(Z)-(4,6-dihydroxy-3-oxo-1-benzofuran-2(3H)-ylidene)methyl]-1-methyl-1H-pyrrolo[2,3-b]pyridin-4-yl}-N-(4-fluorophenyl)benzamide]: the IC50 on mTOR was determined as 0.7 nM; at PI3Kα, 13 nM; at PI3Kγ it was 321 nM.
Take `Cn1cc(/C=C2\Oc3cc(O)cc(O)c3C2=O)c2c(-c3ccc(F)c(C(=O)Nc4ccccc4)c3)ccnc21` [Compound 98, 5-{3-[(Z)-(4,6-dihydroxy-3-oxo-1-benzofuran-2(3H)-ylidene)methyl]-1-methyl-1H-pyrrolo[2,3-b]pyridin-4-yl}-2-fluoro-N-phenylbenzamide]: the figures for the IC50 at mTOR, on PI3Kα and on PI3Kγ were 0.2 nM, 11 nM and 100 nM, respectively.
On to `CCn1cc(/C=C2\Oc3cccc(O)c3C2=O)c2c(-c3ccccc3)ccnc21` [Compound 116, (2Z)-2-[(1-ethyl-4-phenyl-1H-pyrrolo[2,3-b]pyridin-3-yl)methylene]-4-hydroxy-1-benzofuran-3(2H)-one], for which the IC50 was 23 nM at mTOR, 8490 nM on PI3Kα and over 10000 nM at PI3Kγ.
The matching figures for `CNC(=O)Nc1ccc2c(c1)C(=O)/C(=C/c1c[nH]c3ncc(OC)cc13)O2` [Compound 119, 1-{(2Z)-2-[(5-methoxy-1H-pyrrolo[2,3-b]pyridin-3-yl)methylene]-3-oxo-2,3-dihydro-1-benzofuran-5-yl}-3-methylurea]: 72 nM, 46 nM and 183 nM.
